Patent US20170233413A1, “SUBSTITUTED ANNULATED PYRIMIDINES AND USE THEREOF” (Bayer Pharma Aktiengesellschaft, priority 2014, published 2017)

What was measured:
[1] = target: T1, recombinant guanylate cyclase reporter cell line (Rattus norvegicus, UniProt P19686+P20595); assay: Effect on a recombinant guanylate cyclase reporter cell line; format: cell-based; conditions: MEC = minimum effective concentration; in some cases means of individual determinations
T1 construct: expressed in transfected cells
T1 sequence (P19686 1-690): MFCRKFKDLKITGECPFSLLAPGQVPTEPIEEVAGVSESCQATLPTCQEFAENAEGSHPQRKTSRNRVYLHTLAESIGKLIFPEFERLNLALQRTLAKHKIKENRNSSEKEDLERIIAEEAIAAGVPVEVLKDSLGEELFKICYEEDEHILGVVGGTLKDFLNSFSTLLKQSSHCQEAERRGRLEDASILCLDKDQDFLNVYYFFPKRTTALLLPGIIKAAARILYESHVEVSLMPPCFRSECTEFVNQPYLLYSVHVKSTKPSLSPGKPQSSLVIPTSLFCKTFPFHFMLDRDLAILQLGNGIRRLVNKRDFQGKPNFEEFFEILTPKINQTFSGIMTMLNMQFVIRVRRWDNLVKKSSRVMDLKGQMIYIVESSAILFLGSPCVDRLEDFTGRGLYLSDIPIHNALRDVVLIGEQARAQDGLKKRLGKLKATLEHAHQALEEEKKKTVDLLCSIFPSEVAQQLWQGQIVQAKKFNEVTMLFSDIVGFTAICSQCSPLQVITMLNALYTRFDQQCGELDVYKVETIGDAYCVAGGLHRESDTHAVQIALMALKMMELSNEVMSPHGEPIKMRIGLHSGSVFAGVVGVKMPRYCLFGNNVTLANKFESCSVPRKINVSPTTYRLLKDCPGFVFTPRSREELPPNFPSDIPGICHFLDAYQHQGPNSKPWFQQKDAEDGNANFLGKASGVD
T1 sequence (P20595 1-619): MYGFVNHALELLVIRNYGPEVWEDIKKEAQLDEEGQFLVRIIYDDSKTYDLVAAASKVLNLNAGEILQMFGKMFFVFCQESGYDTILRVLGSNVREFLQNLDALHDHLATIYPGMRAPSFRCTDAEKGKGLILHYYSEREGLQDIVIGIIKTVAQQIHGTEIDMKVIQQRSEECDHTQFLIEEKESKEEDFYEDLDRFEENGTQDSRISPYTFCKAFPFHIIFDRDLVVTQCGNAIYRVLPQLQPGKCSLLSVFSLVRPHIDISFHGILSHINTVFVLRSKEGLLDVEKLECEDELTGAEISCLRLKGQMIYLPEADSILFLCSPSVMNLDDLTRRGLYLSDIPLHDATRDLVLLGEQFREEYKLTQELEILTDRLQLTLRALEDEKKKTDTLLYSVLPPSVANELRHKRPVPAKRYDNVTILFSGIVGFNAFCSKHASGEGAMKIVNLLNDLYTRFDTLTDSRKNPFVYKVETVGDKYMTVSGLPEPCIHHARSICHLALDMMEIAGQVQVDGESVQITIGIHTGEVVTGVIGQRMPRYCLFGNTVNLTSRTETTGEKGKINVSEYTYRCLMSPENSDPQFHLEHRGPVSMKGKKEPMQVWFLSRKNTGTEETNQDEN
How it was run: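 Values are reported as MEC, sometimes averaged over individual determinations. The test system is a reporter cell line expressing recombinant rat guanylate cyclase.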

[2] = target: T2, human phosphodiesterase 5 (PDE 5) (Homo sapiens, UniProt O76074); assay: Inhibition of human phosphodiesterase 5 (PDE 5); format: biochemical; conditions: PDE 5 preparation from human platelets; in some cases means of individual determinations
T2 construct: PDE 5 preparations are obtained from human platelets by disruption; from tissue; host or cells: human platelets
How it was run: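 IC50 comes from percent inhibition over a 1:3 series with final levels of 4 to 0.0018 μM. Reaction: tritiated cGMP tracer (0.025 μCi) with platelet-derived, Mono Q-purified enzyme, 1 h at room temperature in Tris pH 7.5, under 70% turnover. Read-out by scintillation proximity beads.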

Row | SMILES | MEC [1] [µM] | IC50 [2] [nM]
1 | CN(C(=O)c1nc(-c2nn(Cc3ccccc3F)c3ncc(F)cc23)nc2c1C(C)(C)C(=O)N2)C1CC1 [Example 52] | 0.01 | 150
2 | CN(CC1CC1)C(=O)c1nc(-c2nn(Cc3ccccc3F)c3ncc(F)cc23)nc2c1C(C)(C)C(=O)N2 [Example 53] | 0.01 | 110
3 | CCC(CC)CNC(=O)c1nc(-c2nn(Cc3ccccc3F)c3ncccc23)nc2c1C(C)(C)C(=O)N2 [Example 59, N-(2-Ethylbutyl)-2-[1-(2-fluorobenzyl)-1H-pyrazolo[3,4-b]pyridin-3-yl]-5,5-dimethyl-6-oxo-6,7-dihydro-5H-pyrrolo[2,3-d]pyrimidine-4-carboxamide] | 1 | 91
4 | CSCCCNC(=O)c1nc(-c2nn(Cc3ccccc3F)c3ncccc23)nc2c1C(C)(C)C(=O)N2 [Example 61, 2-[1-(2-fluorobenzyl)-1H-pyrazolo[3,4-b]pyridin-3-yl]-5,5-dimethyl-N-[3-(methylsulfanyl)propyl]-6-oxo-6,7-dihydro-5H-pyrrolo[2,3-d]pyrimidine-4-carboxamide] | 0.1 | 16
5 | C=CCONC(=O)c1nc(-c2nn(Cc3ccccc3F)c3ncccc23)nc2c1C(C)(C)C(=O)N2 [Example 62, 2-[1-(2-fluorobenzyl)-1H-pyrazolo[3,4-b]pyridin-3-yl]-5,5-dimethyl-6-oxo-N-(prop-2-en-1-yloxy)-6,7-dihydro-5H-pyrrolo[2,3-d]pyrimidine-4-carboxamide] | 0.1 | 18
6 | C[S+]([O-])CCNC(=O)c1nc(-c2nn(Cc3ccccc3F)c3ncccc23)nc2c1C(C)(C)C(=O)N2 (stereo not shown) [Example 64, 2-[1-(2-fluorobenzyl)-1H-pyrazolo[3,4-b]pyridin-3-yl]-5,5-dimethyl-N-[2-(methylsulfinyl)ethyl]-6-oxo-6,7-dihydro-5H-pyrrolo[2,3-d]pyrimidine-4-carboxamide] | 1 | 74
7 | Cn1nccc1NC(=O)c1nc(-c2nn(Cc3ccccc3F)c3ncccc23)nc2c1C(C)(C)C(=O)N2 [Example 67, 2-[1-(2-fluorobenzyl)-1H-pyrazolo[3,4-b]pyridin-3-yl]-5,5-dimethyl-N-(1-methyl-1H-pyrazol-5-yl)-6-oxo-6,7-dihydro-5H-pyrrolo[2,3-d]pyrimidine-4-carboxamide] | 0.3 | 2.6
8 | CC1(C)C(=O)Nc2nc(-c3nn(Cc4ccccc4F)c4ncccc34)nc(C(=O)NCc3ccco3)c21 [Example 69, 2-[1-(2-fluorobenzyl)-1H-pyrazolo[3,4-b]pyridin-3-yl]-N-(furan-2-ylmethyl)-5,5-dimethyl-6-oxo-6,7-dihydro-5H-pyrrolo[2,3-d]pyrimidine-4-carboxamide] | 0.1 | 10
9 | Cn1ccc(NC(=O)c2nc(-c3nn(Cc4ccccc4F)c4ncccc34)nc3c2C(C)(C)C(=O)N3)n1 [Example 70, 2-[1-(2-fluorobenzyl)-1H-pyrazolo[3,4-b]pyridin-3-yl]-5,5-dimethyl-N-(1-methyl-1H-pyrazol-3-yl)-6-oxo-6,7-dihydro-5H-pyrrolo[2,3-d]pyrimidine-4-carboxamide] | 0.3 | 24
10 | Cc1nnc(NC(=O)c2nc(-c3nn(Cc4ccccc4F)c4ncccc34)nc3c2C(C)(C)C(=O)N3)o1 [Example 71, 2-[1-(2-fluorobenzyl)-1H-pyrazolo[3,4-b]pyridin-3-yl]-5,5-dimethyl-N-(5-methyl-1,3,4-oxadiazol-2-yl)-6-oxo-6,7-dihydro-5H-pyrrolo[2,3-d]pyrimidine-4-carboxamide] | 0.3 | 170
11 | CC1(C)C(=O)Nc2nc(-c3nn(Cc4ccccc4F)c4ncccc34)nc(C(=O)Nc3nccs3)c21 [Example 72, 2-[1-(2-fluorobenzyl)-1H-pyrazolo[3,4-b]pyridin-3-yl]-5,5-dimethyl-6-oxo-N-(1,3-thiazol-2-yl)-6,7-dihydro-5H-pyrrolo[2,3-d]pyrimidine-4-carboxamide] | 1 | 46
12 | CC1(C)C(=O)Nc2nc(-c3nn(Cc4ccccc4F)c4ncccc34)nc(C(=O)NCCSC(F)(F)F)c21 [Example 73, 2-[1-(2-fluorobenzyl)-1H-pyrazolo[3,4-b]pyridin-3-yl]-5,5-dimethyl-6-oxo-N-{2-[(trifluoromethyl)sulfanyl]ethyl}-6,7-dihydro-5H-pyrrolo[2,3-d]pyrimidine-4-carboxamide] | 0.3 | 52
13 | CC1(C)C(=O)Nc2nc(-c3nn(Cc4ccccc4F)c4ncccc34)nc(C(=O)NCCC(F)(F)F)c21 [Example 74, 2-[1-(2-fluorobenzyl)-1H-pyrazolo[3,4-b]pyridin-3-yl]-5,5-dimethyl-6-oxo-N-(3,3,3-trifluoropropyl)-6,7-dihydro-5H-pyrrolo[2,3-d]pyrimidine-4-carboxamide] | 0.1 | 26
14 | CC1(C)C(=O)Nc2nc(-c3nn(Cc4ccccc4F)c4ncccc34)nc(C(=O)Nc3cc(F)cc(F)c3)c21 [Example 76, N-(3,5-difluorophenyl)-2-[1-(2-fluorobenzyl)-1H-pyrazolo[3,4-b]pyridin-3-yl]-5,5-dimethyl-6-oxo-6,7-dihydro-5H-pyrrolo[2,3-d]pyrimidine-4-carboxamide] | 1 | 60
15 | CC1(C)C(=O)Nc2nc(-c3nn(Cc4ccccc4F)c4ncccc34)nc(C(=O)Nc3cc(F)c(F)c(F)c3)c21 [Example 77, 2-[1-(2-fluorobenzyl)-1H-pyrazolo[3,4-b]pyridin-3-yl]-5,5-dimethyl-6-oxo-N-(3,4,5-trifluorophenyl)-6,7-dihydro-5H-pyrrolo[2,3-d]pyrimidine-4-carboxamide] | 1 | 87
16 | CONC(=O)c1nc(-c2nn(Cc3ccccc3F)c3ncccc23)nc2c1C(C)(C)C(=O)N2 [Example 79, 2-[1-(2-fluorobenzyl)-1H-pyrazolo[3,4-b]pyridin-3-yl]-N-methoxy-5,5-dimethyl-6-oxo-6,7-dihydro-5H-pyrrolo[2,3-d]pyrimidine-4-carboxamide] | 0.1 | 30
17 | C[C@H](NC(=O)c1nc(-c2nn(Cc3ccccc3F)c3ncccc23)nc2c1C(C)(C)C(=O)N2)C(N)=O [Example 80, N-[(2S)-1-amino-1-oxopropan-2-yl]-2-[1-(2-fluorobenzyl)-1H-pyrazolo[3,4-b]pyridin-3-yl]-5,5-dimethyl-6-oxo-6,7-dihydro-5H-pyrrolo[2,3-d]pyrimidine-4-carboxamide] | 1 | 23
18 | CCCNC(=O)c1nc(-c2nn(Cc3ccccc3F)c3ncccc23)nc2c1C(C)(C)C(=O)N2 [Example 81, 2-[1-(2-fluorobenzyl)-1H-pyrazolo[3,4-b]pyridin-3-yl]-5,5-dimethyl-6-oxo-N-propyl-6,7-dihydro-5H-pyrrolo[2,3-d]pyrimidine-4-carboxamide] | 0.1 | 15
19 | CC1(C)C(=O)Nc2nc(-c3nn(Cc4ccccc4F)c4ncccc34)nc(C(=O)NC3(C4CC4)CC3)c21 [Example 82, N-[1,1′-bi(cyclopropyl)-1-yl]-2-[1-(2-fluorobenzyl)-1H-pyrazolo[3,4-b]pyridin-3-yl]-5,5-dimethyl-6-oxo-6,7-dihydro-5H-pyrrolo[2,3-d]pyrimidine-4-carboxamide] | 0.1 | 8.6
20 | CC1(C)C(=O)Nc2nc(-c3nn(Cc4ccccc4F)c4ncccc34)nc(C(=O)NCCF)c21 [Example 83, 2-[1-(2-fluorobenzyl)-1H-pyrazolo[3,4-b]pyridin-3-yl]-N-(2-fluoroethyl)-5,5-dimethyl-6-oxo-6,7-dihydro-5H-pyrrolo[2,3-d]pyrimidine-4-carboxamide] | 0.1 | 13
